Reference: patent US20130072506A1, “6,8-DISUBSTITUTED PURINE COMPOSITIONS” (priority 2011, published 2013)
Read-outs that look alike come from different tables or passages of the source.

Columns and labels:
[1] = system: T-lymphoblastic leukemia cell line CEM; experiment: In vitro cytotoxic activity (metabolisation of Calcein AM); assay type: cell-based, human; conditions: CEM cells, 72 hours incubation, called GI50, read-out: Cell line tested/IC50 (μmol/L) CEM
Source text: (§1) In vitro Cytotoxic Activity (Metabolisation of Calcein AM). Because toxic compounds negatively influence metabolic processes of cells, many standard cytotoxicity assays are based on measurement of metabolisation rate of various artificial substrates. Resulting product is then quantified, for example, by means of spectrometry. The assays can be easily modified for use in 96-well plates. For evaluation of cytotoxicity of the 6,8-disubstituted purines of this invention, a microtiter assay based on quantification of metabolisation of Calcein AM was used. The assay is widely used in drug screening programs and in chemosensitivity testing. In live cells, Calcein AM is enzymatically hydrolysed and accumulation of resulting calcein is manifested by green fluorescence.
(§2) The following human cell lines were used for routine screening of the compounds: normal diploid fibroblasts BJ, T-lymphoblastic leukemia cell line CEM, promyelocytic leukemia cell line HL-60, erytroid leukemia cell line K-562, breast carcinoma cell line MCF-7, osteosarcoma cell line HOS and melanoma cell line G-361. The cells were maintained in Nunc/Corning 80 cm^2 plastic tissue culture flasks and cultured in cell culture medium (DMEM with 5 g/l glucose, 2 mM glutamine, […] penicillin, 100 mmg/ml streptomycin, 10% fetal calf serum and sodium bicarbonate).
(§3) The cell suspensions were prepared and diluted according to the particular cell type and the expected target cell density (2.500-30.000 cells per well based on cell growth characteristics) and pipetted (80 μl) into 96-well plates. Inoculates were allowed a pre-incubation period of 24 hours at 37° C. and 5% CO2 for stabilization. Tested compound was added in total volume of […] of water at time zero. Usually, test compound was evaluated at six 3-fold dilutions. In routine testing, the highest concentration tested was 100 μM, but it could have been adjusted because of limited solubility of a compound. All drug concentrations were tested in triplicates.
(§4) Incubations of cells with the test compounds lasted for 72 hours at 37° C., in 5% CO2 atmosphere and 100% humidity. At the end of incubation period Calcein AM in PBS was added into final concentration of 1 μg/ml. After another 1 hour of incubation fluorescence (FD) was measured with the Labsystem FIA Reader Fluoroscan Ascent (UK). Growth inhibition (GI) was estimated using the following equitation: GI=(mean FDdrug exposed wells−mean FDblank)/(mean FDcontrol wells−mean FDblank)×100%. The GI50 value, the drug concentration causing 50% reduction of Calcein AM conversion, was calculated from the obtained dose response curves.

[2] = system: breast carcinoma cell line MCF-7; experiment: as above; assay type: cell-based, human; conditions: MCF7 cells, 72 hours incubation, called GI50, read-out: Cell line tested/IC50 (μmol/L) MCF7
Source text: as §1, §2, §3, §4

[3] = system: erytroid leukemia cell line K-562; experiment: as above; assay type: cell-based, human; conditions: 72 hours incubation, called GI50, read-out: Cell line tested/IC50 (μmol/L) K-562
Source text: as §1, §2, §3, §4

melanoma cell line G-361 = experiment: as above; assay type: cell-based, human; conditions: G-361 cells, 72 hours incubation, called GI50, read-out: Cell line tested/IC50 (μmol/L) G-361
Source text: as §1, §2, §3, §4

[4] = system: normal diploid fibroblasts BJ; experiment: as above; assay type: cell-based, human; conditions: BJ cells, 72 hours incubation, called GI50, read-out: Cell line tested/IC50 (μmol/L) BJ
Source text: as §1, §2, §3, §4

[5] = system: osteosarcoma cell line HOS; experiment: as above; assay type: cell-based, human; conditions: HOS cells, 72 hours incubation, called GI50, read-out: Cell line tested/IC50 (μmol/L) HOS
Source text: as §1, §2, §3, §4

[6] = system: Human diploid fibroblast BJ; experiment: In vitro cytotoxic activity (metabolisation of MTT); assay type: cell-based; conditions: 72 hours, BJ passage 18-22
Description: In vitro Cytotoxic Activity (metabolisation of Mtt). MTT ([…]) assay is a standard colorimetric assay for evaluation of cytotoxicity. Mitochondrial dehydrogenase activity converts yellow MTT into violet formazan which is measured by means of spectrometry.
Human diploid fibroblast BJ (passage 18-22) were seeded into 96-well plate (5.000 cells per well). After 6 hours cultivation medium (DMEM with 5 g/l glucose, 2 mM glutamine, 100 U/ml penicillin, 100 mmg/ml streptomycin, 10% fetal calf serum and sodium bicarbonate) was replaced with the cultivation medium containing test compounds in concentration range of 0-200 μM. Highest concentration was adjusted if the solubility of the compound was limiting. Every concentration was tested in pentaplicate. MTT was added to the cells after 72 hours incubation (final concentration 0.5 mg/ml) and incubation continued for another 3 hours. MTT was solubilised by DMSO and absorbance at 570 nm was measured. Growth inhibition (GI) was estimated using the following equitation: GI=(mean A drug exposed wells−mean Ablank/mean Acontrol wells−mean Ablank)×100%. The GI20 value, the drug concentration causing 20% decrease in mitochondrial dehydrogenase activity, was calculated from the obtained dose response curves.

[7] = Homo sapiens, K562, K-562 cells

Row | SMILES | IC50 ([1]; Homo sapiens, CCRF-CEM) [µmol/L] | IC50 ([2]; Homo sapiens) [µmol/L] | IC50 [3, 7] [µmol/L] | IC50 (melanoma cell line G-361; Homo sapiens) [µmol/L] | IC50 ([4]; Homo sapiens) [µmol/L] | IC50 ([5]; Homo sapiens) [µmol/L] | GI20 [6] [µM] | IC50 [1] [µmol/L] | IC50 [2] [µmol/L] | IC50 ([3]; K-562 cells) [µmol/L] | IC50 (melanoma cell line G-361) [µmol/L] | IC50 [4] [µmol/L] | IC50 [5] [µmol/L]
1 | CC(CO)CCNc1ncnc2nc(N)[nH]c12 (stereo not shown) [Compound 86, 6-(4-hydroxy-3-methylbutylamino)-8-aminopurine] | > 50 | > 50 | > 50 | > 50 | > 50 | > 50 | >100 |  |  |  |  |  | 
2 | Nc1nc2ncnc(NCc3cccc(Cl)c3)c2[nH]1 [Compound 91] |  |  |  |  |  |  | >100 | > 50 | > 50 | > 50 | > 50 | > 50 | > 50
3 | C/C(=C\CNc1ncnc2nc(N)[nH]c12)CO [Compound 85, 6-(E)-(4-hydroxy-3-methylbut-2-en-1-ylamino)-8-aminopurine] | > 50 | > 50 | > 50 | > 50 | > 50 | > 50 | >100 |  |  |  |  |  | 
4 | Nc1nc2ncnc(NCc3cccc([N+](=O)[O-])c3)c2[nH]1 [Compound 100] |  |  |  |  |  |  | >100 | > 50 | > 50 | > 50 | > 50 | > 50 | > 50
5 | COc1cccc(Nc2ncnc3nc(CN)[nH]c23)c1 [Compound 186] |  |  |  |  |  |  |  | > 50 | > 50 | > 50 | > 50 | > 50 | > 50
6 | O=C(O)c1nc2ncnc(NCc3ccco3)c2[nH]1 [Compound 201] |  |  |  |  |  |  |  | > 50 | > 50 | > 50 | > 50 | > 50 | > 50
7 | NCc1nc2ncnc(NCc3cccc(F)c3)c2[nH]1 [Compound 182] |  |  |  |  |  |  |  | > 50 | > 50 | > 50 | > 50 | > 50 | > 50
8 | Oc1nc2ncnc(NCc3ccco3)c2[nH]1 [Compound 166] |  |  |  |  |  |  |  | > 50 | > 50 | > 50 | > 50 | > 50 | > 50
9 | CC(=CCNc1ncnc2nc(Br)[nH]c12)CO [Compound 3] |  |  |  |  |  |  |  | > 50 | > 50 | > 50 | > 50 | > 50 | > 50
10 | COc1ccccc1Nc1ncnc2nc(CN)[nH]c12 [Compound 185] |  |  |  |  |  |  |  | > 50 | > 50 | > 50 | > 50 | > 50 | > 50
11 | COc1nc2ncnc(NCC=C(C)CO)c2[nH]1 [Compound 122] |  |  |  |  |  |  |  | > 50 | > 50 | > 50 | > 50 | > 50 | > 50
12 | N#Cc1nc2ncnc(NCc3ccco3)c2[nH]1 [Compound 173] |  |  |  |  |  |  |  | > 50 | > 50 | > 50 | > 50 | > 50 | > 50
13 | CCOC(=O)c1nc2ncnc(NCc3ccco3)c2[nH]1 [Compound 194, 6-furfurylamino-8-(ethoxycarbonyl)purine] | > 50 | > 50 | > 50 | > 50 | > 50 | > 50 |  |  |  |  |  |  | 
14 | NCc1nc2ncnc(Nc3ccccc3)c2[nH]1 [Compound 184] |  |  |  |  |  |  |  | > 50 | > 50 | > 50 | > 50 | > 50 | > 50
15 | NCCCNc1nc2ncnc(NCc3ccco3)c2[nH]1 [Compound 208, 6-furfurylamino-8-(aminopropylamino)purine] | > 50 | > 50 | > 50 | > 50 | > 50 | > 50 |  |  |  |  |  |  | 
16 | Nc1nc2ncnc(NCc3ccccc3Br)c2[nH]1 [Compound 93] |  |  |  |  |  |  |  | > 50 | > 50 | > 50 | > 50 | > 50 | > 50
17 | COc1cccc(CNc2ncnc3nc(O)[nH]c23)c1 [Compound 170] |  |  |  |  |  |  |  | > 50 | > 50 | > 50 | > 50 | > 50 | > 50
18 | CC(=CCNc1ncnc2nc(O)[nH]c12)CO [Compound 168] |  |  |  |  |  |  |  | > 50 | > 50 | > 50 | > 50 | > 50 | > 50
19 | CSc1nc2ncnc(NCc3ccco3)c2[nH]1 [Compound 147, 6-furfurylamino-8-methylthiopurine] | > 50 | > 50 | > 50 | > 50 | > 50 | > 50 |  |  |  |  |  |  | 
20 | COc1nc2ncnc(NCc3cccc(OC)c3O)c2[nH]1 [Compound 130] |  |  |  |  |  |  |  | > 50 | > 50 | > 50 | > 50 | > 50 | > 50
21 | NCc1nc2ncnc(NCc3ccco3)c2[nH]1 [Compound 180] |  |  |  |  |  |  |  | > 50 | > 50 | > 50 | > 50 | > 50 | > 50
22 | Sc1nc2ncnc(NCc3ccco3)c2[nH]1 [Compound 137, 6-furfurylamino-8-mercaptopurine] | > 50 | > 50 | > 50 | > 50 | > 50 | > 50 |  |  |  |  |  |  | 
23 | Oc1cccc(CNc2ncnc3nc(O)[nH]c23)c1 [Compound 169] |  |  |  |  |  |  |  | > 50 | > 50 | > 50 | > 50 | > 50 | > 50
24 | COc1cccc(CNc2ncnc3nc(CN)[nH]c23)c1 [Compound 183] |  |  |  |  |  |  |  | > 50 | > 50 | > 50 | > 50 | > 50 | > 50
25 | Oc1nc2ncnc(Nc3ccccc3)c2[nH]1 [Compound 171] |  |  |  |  |  |  |  | > 50 | > 50 | > 50 | > 50 | > 50 | > 50
26 | COc1cccc(Nc2ncnc3nc(O)[nH]c23)c1 [Compound 172] |  |  |  |  |  |  |  | > 50 | > 50 | > 50 | > 50 | > 50 | > 50
27 | COC(=O)c1nc2ncnc(NCc3ccco3)c2[nH]1 [Compound 187, 6-furfurylamino-8-(methoxycarbonyl)purine] | > 50 | > 50 | > 50 | > 50 | > 50 | > 50 |  |  |  |  |  |  | 
